The source of these data is article PMC7188706 (Cancer Chemotherapy and Pharmacology, 2020).

One series has as its system NSCLC patients. On the set-up: method as in PMID 16878326. Particulars: 2000 mg per week; cited from earlier work.
Details of series [1]: method as in PMID 26858332. As to conditions: patients using omeprazole; cited from earlier work.
In series [2] the test system is patients with known EGFR mutations. Particulars: cited from earlier work.
The subject of series [3] is HER2-positive breast cancer. On the set-up: method as in PMID 24711549. Particulars: escalated to 7000 mg on days 1–5 of repeating 14-day cycles, heavily pre-treated patients; cited from earlier work.
Series [4] in a line: Plasma pharmacokinetics and drug monitoring of high-dose, pulsatile sorafenib (LC-MS/MS, non-compartmental). As to conditions: for Cmax / AUC(0-t): human, oral.
Experimental: (§1) This single center phase I study was conducted at the Amsterdam UMC, location VUmc, the Netherlands. […] The starting exposure level was 25–50 mg/L/h, analogous to the continuous schedule [23], and was escalated in subsequent cohorts with increments of 25 mg/L/h.
Per patient a maximum of two dose adjustments were permitted. In addition, the maximum concentration (Cmax) and time of maximum concentration (Tmax) were determined.
The subject of series [5] is advanced solid malignancies. Put plainly: Tumor response by CT or MRI using RECIST version 1.1. Type of series: in vivo, human. The procedure:
Tumor response was assessed by computed tomography or magnetic resonance imaging at baseline and every 8 weeks thereafter using RECIST version 1.1 [24].
Descriptive statistics were used to describe patient characteristics, treatment administration, safety, efficacy and pharmacokinetic data. […] Fisher’s exact tests were used to assess correlations between exposure level or dose and frequency of AEs. […] Data were considered significant at P < 0.05.

The nature of series [6]: Effect of cola versus water on sorafenib exposure (dose normalized Cmax and AUC(0–12 h)). As to conditions: dissolved in cola vs water, patients using PPI. Type of series: in vivo, human. An excerpt:
Descriptive statistics were used to describe patient characteristics, treatment administration, safety, efficacy and pharmacokinetic data. Progression-free survival (PFS) was defined as the time from first treatment until progression of disease or death as a result of any cause. Fisher’s exact tests were used to assess correlations between exposure level or dose and frequency of AEs. […] Data were considered significant at P < 0.05.

Series [7] relates to patients with advanced solid malignancies. Particulars: in vivo.
Experimental: as §1
(§2) Each dose was dissolved in either a large glass of water or classic Coca-Cola (the Coca-Cola Company, Atlanta GA) (~ 240 ml).
(§3) Safety and tolerability assessments, including physical examination, ECG and blood hematology and chemistry, were performed weekly during the first 8 weeks and once every 4 weeks thereafter. Adverse events (AEs) were graded according to the National Cancer Institute Common Terminology Criteria for Adverse Events version 4.0.
(§4) Dose (/exposure)-limiting toxicity (DLT) was defined as any grade 3 toxicity that occurred within the first 6 weeks of treatment and possibly related to the study drug.
For series [8] the following is noted: cited from earlier work.
Details of series [9]: method as in PMID 15613696. Particulars: 400 mg twice daily; cited from earlier work.
For series [10] the following is noted: cited from earlier work. The source holds these as a separate data set.
In series [11] the test system is progressive renal cell carcinoma. As to conditions: 600 mg twice daily after failure of standard dosing; cited from earlier work.
For series [12] the following is noted: cited from earlier work. The source holds these as a separate data set.
The subject of series [13] is 789-O renal cell carcinoma xenografts. As to conditions: high-dose schedule; also increased reduction of tumor perfusion and microvessel density; cited from earlier work.
The test system of a further series is patients. As to conditions: cited from earlier work.
For series [14] the following is noted: cited from earlier work. The source holds these as a separate data set.
Series [15] deals with patients with advanced solid malignancies. Put plainly: Phase I safety: treatment-related adverse events (CTCAE v4.0) and dose-limiting toxicity of once weekly high-dose, pulsatile sorafenib.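 Further: Single-center phase I trial, adverse events graded by NCI CTCAE version 4.0, safety checks weekly over the first 8 weeks, then every 4 weeks.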
Experimental: as §1, §2, §3, §4
In series [16] the test system is advanced solid malignancies. Particulars: cited from earlier work.

“Also recorded” adds a separate entry of the source. Read-outs that look alike come from different tables or passages of the source.

As to `C#Cc1cccc(Nc2ncnc3cc(OCCOC)c(OCCOC)cc23)c1` [erlotinib], in the series with NSCLC patients, the “mean overall survival (OS)” value is recorded as 9.5 months and the tolerability entry was “well tolerated”. Further, the “effect of cola intake on bioavailability” value in series [1] is “did improve by cola intake”. Further, in [2] (erlotinib 450 mg every 3 days or gefitinib 1000 mg every 4 days), the tolerability result is recorded as “well tolerated”. Also, in series [2] (erlotinib 450 mg every 3 days), the “median PFS” value was 6 months and the response rate was 15%.
As to `CS(=O)(=O)CCNCc1ccc(-c2ccc3ncnc(Nc4ccc(OCc5cccc(F)c5)c(Cl)c4)c3c2)o1` [lapatinib], the objective response rate in [3] is 15%.
Consider `CNC(=O)c1cc(Oc2ccc(NC(=O)Nc3ccc(Cl)c(C(F)(F)F)c3)cc2)cc[n+]1[O-]` [sorafenib N-oxide], for which, in [4] (plasma), the “metabolite as share of the parent drug” value is reported as “approximately 4%”.
As to `CNC(=O)c1cc(Oc2ccc(NC(=O)Nc3ccc(Cl)c(C(F)(F)F)c3)cc2)ccn1` [sorafenib], in series [5] (patient with cholangiocarcinoma, target exposure 75–100 mg/L/h, 2400 mg/week), the “duration of stable disease” value is recorded as 3 months. The “duration of stable disease” value in series [5] (patient with hepatocellular carcinoma, target exposure 100–125 mg/L/h, 4800 mg/week) is 5.5 months. The “complete or partial responses” value in series [5] (thirteen patients evaluable) is reported as “No complete or partial responses were observed”. Besides, the “progressive disease, patients” value in series [5] (thirteen patients evaluable, eleven patients) was 85%. Further, in series [5] (thirteen patients evaluable, two patients), the “best response stable disease, patients” value is recorded as 15%. Besides, the “effect of cola on sorafenib AUC(0–12 h)” value in series [6] (P = 0.24) is recorded as “did not improve sorafenib exposure; also recorded: did not lead to an increase; also recorded: did not affect”. The “effect of cola on sorafenib Cmax” value in series [6] (P = 0.33) is given as “did not lead to an increase; also recorded: did not affect”. Further, in series [7] (human), the “ALP increased, Grade All, no. of patients (%)” value is listed as 3 (20%); the “ALP increased, Grade ≥ 3, no. of patients (%)” value is 2 (13%); the “Anorexia, Grade All, no. of patients (%)” value is on record as 3 (20%); the “Anorexia, Grade ≥ 3, no. of patients (%)” value is 0. In series [7] (human), the “Bilirubin increased, Grade All, no. of patients (%)” value is 2 (13%); the “Bilirubin increased, Grade ≥ 3, no. of patients (%)” value was determined as 0; the “Bloating, Grade All, no. of patients (%)” value is 2 (13%); the “Bloating, Grade ≥ 3, no. of patients (%)” value is 0. Besides, in [7] (human), the “Diarrhea, Grade All, no. of patients (%)” value is listed as 4 (27%); the “Diarrhea, Grade ≥ 3, no. of patients (%)” value is 0; the “Fatigue, Grade All, no. of patients (%)” value is given as 10 (67%); the “Fatigue, Grade ≥ 3, no. of patients (%)” value amounted to 0. In [7] (human), the “GGT increased, Grade All, no. of patients (%)” value is 1 (7%); the “GGT increased, Grade ≥ 3, no. of patients (%)” value is 1 (7%); the “Multiorgan failure, Grade All, no. of patients (%)” value is reported as 1 (7%); the “Multiorgan failure, Grade ≥ 3, no. of patients (%)” value is listed as 1 (7%). Besides, in [7] (human), the “Nausea, Grade All, no. of patients (%)” value is given as 10 (67%); the “Nausea, Grade ≥ 3, no. of patients (%)” value was 0; the “Perforation, Grade All, no. of patients (%)” value is listed as 2 (13%); the “Perforation, Grade ≥ 3, no. of patients (%)” value was 2 (13%). Also, in [7] (human), the “Stomatitis, Grade All, no. of patients (%)” value is reported as 2 (13%); the “Stomatitis, Grade ≥ 3, no. of patients (%)” value is listed as 0; the “Vomiting, Grade All, no. of patients (%)” value is listed as 8 (53%); the “Vomiting, Grade ≥ 3, no. of patients (%)” value is 0. Also, in series [7] (human), the “diarrhea, frequency” value is 27%; the “doses from which grade ≥ 3 AEs developed” value is given as no less than 2800 mg/week; the “fatigue, frequency” value amounted to 67%; the incidence of perforation is reported as 13%. In [7] (human), the “nausea, frequency” value is on record as 67%; the “patients requiring dose interruptions” value worked out at 33%; the “patients with dose interruptions due to DLTs leading to permanent study discontinuation” value amounted to 20%; the “vomiting, frequency” value is listed as 53%. In addition, in series [7] (human, 3 cycles), the “dose-limiting toxicity, one patient” value was “grade 5 biliary tract perforation”. Moreover, in series [7], the “frequency and rate of grade ≥ 3 AEs versus dose” value was “increased with a higher dose of sorafenib”; the “frequency and rate of grade ≥ 3 AEs versus exposure” value is recorded as “did not increase with higher exposure”; the “patients with dose-limiting toxicity” value is listed as “three patients”. For the same compound, the solubility in series [8] (pH 1.0) is 0.034 mg/100 mL. The solubility in series [8] (pH 4.5) is reported as 0.013 mg/100 mL. Moreover, in [9], the “mean Cmax, steady state” value was 5400 to 9400 ng/mL; the “mean sorafenib exposure (AUC), day 1” value is 21.8 to 107 mg/L/h; the “mean sorafenib exposure (AUC), steady state” value is 47.8 to 71.7 mg/L/h. Besides, the “improvement of absorption by multiple divided doses per day” value in series [10] was 50%. Moreover, the “effects of PPI on sorafenib absorption” value in [10] (contradicting results) is “no effects to one-third reduction”. For the same compound, the “dose above which absorption is saturable” value in series [10] (daily continuous schedule) is listed as greater than 800 mg/day. Moreover, the “improvement of absorption by a moderate fat meal” value in [10] (in comparison to a high fat meal of ≥ 50% fat) was 30%. For the same compound, the “patients with tumor reduction” value in series [11] is reported as 42%. Further, the “association of higher AUCmax (> 100 mg/L/h) with outcome” value in series [12] is “longer progression-free survival”. For the same compound, in series [13], the “tumor growth in comparison to continuous conventional dosing” value was “slower tumor growth”. In the series on patients (standard continuous schedule), the “incidence of perforation of the gastrointestinal tract” value was less than 1%. Also, in the series on patients (standard dose sorafenib, several phase I studies), the “most important DLTs” value is “skin toxicity, diarrhea and fatigue”. Moreover, in [14], the enterohepatic circulation result was “has been observed”. For the same compound, the “Observed AUC(0–12 h) week 3, mean (± SD)” value in [4] (Cohort 1, target AUC(0–12 h) 25–50 mg/L/h, PK-guided dose week 3 533 (± 306) mg, plasma) is recorded as 31 (± 13) mg/L/h. In series [4] (after drug monitoring / personalized dose titration, SD ± 32%, P = 0.06 vs week 1), the “mean difference between observed and target AUC(0–12 h), week 3” value worked out at 2%. In [4] (fixed starting dose, SD ± 56%), the “mean difference between observed and target AUC(0–12 h), week 1” value was 45%. In addition, the concentration in series [4] (plasma, 533 mg, Cmax week 3, mean (± SD), Cohort 1, PK-guided dose week 3 533 (± 306) mg) peaked (Cmax) at 4380 ng/mL. For the same compound, in series [4] (plasma, 1000 mg, AUC(0–12 h), range, first exposure cohort, target AUC(0–12 h) 25–50 mg/L/h), the AUC(0-t) was in the range of 61 to 103 µg·h/mL. In series [4] (plasma, 1000 mg, Observed AUC(0–12 h) week 1, mean (± SD), Cohort 1, 3 patients, target AUC(0–12 h) 25–50 mg/L/h, fixed dose week 1 1000 mg), this compound displayed an AUC(0-t) of 78 µg·h/mL. Besides, the highest level in series [4] (plasma, 1867 mg, Cmax week 3, mean (± SD), Cohort 2, PK-guided dose week 3 1867 (± 993) mg) (Cmax) was 11100 ng/mL. Also, the Cmax in series [4] (plasma, 2000 mg, Cmax week 1, mean (± SD), Cohort 2, 8 patients, fixed dose week 1 2000 mg) is 13700 ng/mL. The AUC(0-t) in series [4] (plasma, 2000 mg, Observed AUC(0–12 h) week 1, mean (± SD), Cohort 2, 8 patients, target AUC(0–12 h) 75–100 mg/L/h, fixed dose week 1 2000 mg) turned out to be 125 µg·h/mL. For the same compound, the Cmax in series [4] (plasma, 2333 mg, Cmax week 3, mean (± SD), Cohort 3, PK-guided dose week 3 2333 (± 219) mg) turned out to be 13300 ng/mL. The compound further registered a Cmax in [4] (plasma, 2400 mg, Cmax week 1, mean (± SD), Cohort 3, 3 patients, fixed dose week 1 2400 mg) of 20800 ng/mL. Also, in series [4] (plasma, 2400 mg, Cmax, highest, SD ± 11 mg/L), the Cmax is no more than 21000 ng/mL. In series [4] (plasma, 2400 mg, highest exposure levels, AUC(0–12 h), SD ± 113 mg/L/h), this compound displayed an AUC(0-t) of no more than 204 µg·h/mL. This compound registered an exposure AUC(0-t) in series [4] (plasma, 2800 mg, Observed AUC(0–12 h) week 1, mean (± SD), Cohort 4, 3 patients, target AUC(0–12 h) 125–150 mg/L/h, fixed dose week 1 2800 mg) of 120 µg·h/mL. In [4] (plasma, 3600 mg, observed AUC(0–12 h), individual patient, patient with grade 5 biliary tract perforation, sorafenib dose 3600 mg), this compound yielded an AUC(0-t) of 182 µg·h/mL. The “sorafenib dose up to which mean exposure increased” value in series [4] (no additional increases thereafter, divided doses of 200–400 mg every 2 h) is reported as “up to 2400 mg per week”. Also, the “accumulation a week after each ingestion” value in series [4] (once weekly) is on record as “No accumulation”. In addition, in [15], the “tolerated dose in a pulsatile schedule as multiple of conventional dose” value is recorded as ~ 3.5 times.
As for `CCN(CC)CCNC(=O)c1c(C)[nH]c(/C=C2\C(=O)Nc3ccc(F)cc32)c1C` [sunitinib], the “increase of Cmax” value in [16] (14 times the conventional dose) was 18 fold. For the same compound, in series [16], the “patients with PFS of ≥ 5 months” value is recorded as 30%. The “patients with clinical benefit” value in series [16] (more than 70 heavily pre-treated patients) is 63%.

The term Cmax denotes the highest concentration seen after dosing. The AUC(0-t) is the area under the concentration-time curve up to a stated or last time point. High values mean more exposure, low ones less exposure.
